From paper PMC10573254, “Development of Novel Class of Phenylpyrazolo[3,4-d]pyrimidine-Based Analogs with Potent Anticancer Activity and Multitarget Enzyme Inhibition Supported by Docking Studies” (International Journal of Molecular Sciences, 2023)
Like-named read-outs stand apart in the source and are kept apart here.

Columns and labels:
HCT-116 = assay: MTT cytotoxicity assay, HCT-116; assay type: cell-based; details: Homo sapiens, HCT-116, read-out: IC50 HCT-116; MTT, colon cancer cells
Procedure: (§2) The cytotoxic activity was assessed using the 3-(4,5-dimethylthiazol-2-yl)-2,5-diphenyl tetrazolium bromide (MTT) colorimetric assay, as reported previously [62, 63]. […] Briefly, the designated cell lines were cultured at a concentration of 5 × 10^4 cell/well in 96-well plates. The cells were incubated for 24 h under optimum conditions. Following this, the designated molecules were introduced (in serial dilutions from 0 to 50 μg/mL), and the cells were incubated for an additional 24 h. Following this, the media were withdrawn, and 100 μL of fresh medium was added. Then, 10 µL of the 12 mM MTT stock solution was administered to each well. The plates were then incubated for 4 h. Then, the cells were exposed to different compounds at the desired concentrations (0.01, 0.1, 1, 10, and 100 µM) or to 1% dimethyl sulfoxide (DMSO) for 48 and 72 h. […] Then, the optical density was measured at 590 nm with the microplate reader (Sunrise, TECAN, Inc., Morrisville, NC, USA).

HePG-2 = assay: MTT cytotoxicity assay, HePG-2; assay type: cell-based; details: Homo sapiens, HepG2
Procedure: (§1) The cytotoxic activity was assessed using the 3-(4,5-dimethylthiazol-2-yl)-2,5-diphenyl tetrazolium bromide (MTT) colorimetric assay, as reported previously. Doxorubicin was used as a reference standard, and DMSO was used as a negative control. Briefly, the designated cell lines were cultured at a concentration of 5 × 10^4 cell/well in 96-well plates. The cells were incubated for 24 h under optimum conditions. Following this, the designated molecules were introduced (in serial dilutions from 0 to 50 μg/mL), and the cells were incubated for an additional 24 h. Following this, the media were withdrawn, and 100 μL of fresh medium was added. Then, 10 µL of the 12 mM MTT stock solution was administered to each well. The plates were then incubated for 4 h. […] An 85-μL aliquot of the media was removed from the wells, and 50 µL of DMSO was added to each well and mixed thoroughly with the pipette and incubated at 37 °C for 10 min. Then, the optical density was measured at 590 nm with the microplate reader (Sunrise, TECAN, Inc., Morrisville, NC, USA).

MCF-7 = assay: MTT cytotoxicity assay, MCF-7; assay type: cell-based; details: Homo sapiens, MCF7; MTT, breast cancer cells; read-out: IC50 MCF-7
Procedure: as §2

WI-38 = assay: MTT assay on normal cell line WI-38; assay type: cell-based; details: Homo sapiens, WI-38, MTT, normal human diploid fibroblasts
Procedure: According to our design, the tested compounds are classified into four categories based on the length and the chemotype of the spacer (Figure 3). In the first category, we used monosubstituted hydrazone linker. […] The second category is represented by […] hydrazone linker.
as §1

Topo-II = molecular target: T1, Topo-II (Homo sapiens, UniProt Q02880); assay: In vitro Topo II inhibitory assay; assay type: biochemical
T1 construct: purchased
Procedure: Curve fitting was performed using GraphPad Prism.
(1 picture or pasted object on this page, not shown here)

[1] = MTT, liver cancer cells, read-out: IC50 HePG-2

T1 sequence (Q02880 2-1626): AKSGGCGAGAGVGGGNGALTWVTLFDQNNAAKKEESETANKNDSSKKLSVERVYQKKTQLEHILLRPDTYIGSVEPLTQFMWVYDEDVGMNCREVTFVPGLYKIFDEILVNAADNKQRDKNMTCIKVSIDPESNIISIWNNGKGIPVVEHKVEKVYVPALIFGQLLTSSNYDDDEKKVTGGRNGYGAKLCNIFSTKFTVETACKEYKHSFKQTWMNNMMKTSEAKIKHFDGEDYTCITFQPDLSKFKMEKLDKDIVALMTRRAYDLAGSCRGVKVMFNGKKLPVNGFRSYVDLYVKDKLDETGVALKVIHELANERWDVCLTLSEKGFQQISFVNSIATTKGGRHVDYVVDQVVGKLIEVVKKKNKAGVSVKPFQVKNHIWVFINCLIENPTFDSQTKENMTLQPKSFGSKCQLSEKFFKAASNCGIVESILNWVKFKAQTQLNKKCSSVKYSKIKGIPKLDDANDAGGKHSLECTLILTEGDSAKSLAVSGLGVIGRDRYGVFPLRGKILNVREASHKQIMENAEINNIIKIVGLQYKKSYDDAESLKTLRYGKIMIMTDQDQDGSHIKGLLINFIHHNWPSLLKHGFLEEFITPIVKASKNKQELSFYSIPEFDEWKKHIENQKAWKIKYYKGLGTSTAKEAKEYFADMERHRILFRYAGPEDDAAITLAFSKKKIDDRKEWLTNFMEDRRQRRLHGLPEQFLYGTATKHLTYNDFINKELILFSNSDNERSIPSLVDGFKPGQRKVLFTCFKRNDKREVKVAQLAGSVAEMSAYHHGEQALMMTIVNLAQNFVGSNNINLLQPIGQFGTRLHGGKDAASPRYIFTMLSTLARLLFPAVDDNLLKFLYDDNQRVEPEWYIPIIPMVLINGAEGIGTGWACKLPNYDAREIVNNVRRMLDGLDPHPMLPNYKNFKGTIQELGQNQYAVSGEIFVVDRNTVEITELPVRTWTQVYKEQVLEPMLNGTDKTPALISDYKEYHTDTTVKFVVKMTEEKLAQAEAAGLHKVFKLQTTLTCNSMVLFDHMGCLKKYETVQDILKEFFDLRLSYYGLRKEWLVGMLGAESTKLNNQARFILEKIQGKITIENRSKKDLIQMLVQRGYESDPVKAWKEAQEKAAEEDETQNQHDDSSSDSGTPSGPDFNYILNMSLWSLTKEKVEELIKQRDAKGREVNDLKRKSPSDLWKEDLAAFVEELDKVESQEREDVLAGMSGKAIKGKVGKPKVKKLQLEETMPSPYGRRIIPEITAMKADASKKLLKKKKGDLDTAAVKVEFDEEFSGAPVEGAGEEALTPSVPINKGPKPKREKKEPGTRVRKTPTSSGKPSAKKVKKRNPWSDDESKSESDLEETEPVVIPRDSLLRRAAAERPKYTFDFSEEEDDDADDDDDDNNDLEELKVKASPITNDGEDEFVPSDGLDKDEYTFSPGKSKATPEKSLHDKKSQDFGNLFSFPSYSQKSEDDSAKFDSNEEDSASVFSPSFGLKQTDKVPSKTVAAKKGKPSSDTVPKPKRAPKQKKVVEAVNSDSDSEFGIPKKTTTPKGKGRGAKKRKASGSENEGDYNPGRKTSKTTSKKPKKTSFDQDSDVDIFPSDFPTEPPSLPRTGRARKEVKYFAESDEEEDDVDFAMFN

| Structure (SMILES) | melting point [°C] | IC50 (HCT-116) [µM] | IC50 (HePG-2; [1]) [µM] | IC50 (MCF-7) [µM] | other results |
| --- | --- | --- | --- | --- | --- |
| Cc1nc(NN=Cc2ccccc2)c2cnn(-c3ccccc3)c2n1 [Compound 5a, 4-(2-Benzylidenehydrazinyl)-6-methyl-1-phenyl-1H-pyrazolo[3,4-d]pyrimidine] | 160 to 162 | 11.7 ± 0.9 | 15.1 ± 1.2 | 21.1 ± 1.5 |  |
| Cc1nc(NN=Cc2ccc(Cl)cc2)c2cnn(-c3ccccc3)c2n1 [Compound 5c, 4-(2-(4-Chlorobenzylidene)hydrazinyl)-6-methyl-1-phenyl-1H-pyrazolo[3,4-d]pyrimidine] | 233 to 235 | 39.5 ± 2.6 | 83.7 ± 4.4 | 66.6 ± 3.8 |  |
| COc1ccc(C=NNc2nc(C)nc3c2cnn3-c2ccccc2)cc1 [Compound 5d] | 227 to 229 | 9.87 ± 0.7 | 18.3 ± 1.5 | 19.4 ± 1.3 |  |
| COc1ccccc1C=NNc1nc(C)nc2c1cnn2-c1ccccc1 [Compound 5e, 4-(2-(2-Methoxybenzylidene)hydrazineyl)-6-methyl-1-phenyl-1H-pyrazolo[3,4-d]pyrimidine] | 220 to 222 | 8.15 ± 0.5 | 13.8 ± 1 | 16.1 ± 1.1 |  |
| Cc1nc(NN=Cc2ccc([N+](=O)[O-])cc2)c2cnn(-c3ccccc3)c2n1 [Compound 5f, 6-Methyl-4-(2-(4-nitrobenzylidene)hydrazineyl)-1-phenyl-1H-pyrazolo[3,4-d]pyrimidine] | 250 to 252 | 89.7 ± 4.8 | > 100 | > 100 |  |
| Cc1nc(NN=Cc2c(Cl)cccc2Cl)c2cnn(-c3ccccc3)c2n1 [Compound 5g, 4-(2-(2,6-Dichlorobenzylidene)hydrazineyl)-6-methyl-1-phenyl-1H-pyrazolo[3,4-d]pyrimidine] | 255 to 257 | > 100 | > 100 | > 100 |  |
| Cc1nc(NN=CC=Cc2ccccc2)c2cnn(-c3ccccc3)c2n1 [Compound 5h, 6-Methyl-1-phenyl-4-(2-(-3-phenylallylidene)hydrazineyl)-1H-pyrazolo[3,4-d]pyrimidine] | 241 to 243 | 76.8 ± 4.1 | > 100 | > 100 |  |
| CC(=NNc1nc(C)nc2c1cnn2-c1ccccc1)c1ccc(N)cc1 [Compound 5j, 4-(1-(2-(6-Methyl-1-phenyl-1H-pyrazolo[3,4-d]pyrimidin-4-yl)hydrazineylidene)ethyl)aniline] | 221 to 223 | 21.5 ± 1.5 | 44.3 ± 2.9 | 36 ± 2.4 |  |
| COc1ccc(C(C)=NNc2nc(C)nc3c2cnn3-c2ccccc2)cc1 [Compound 5k, 4-(2-(1-(4-Methoxyphenyl)ethylidene)hydrazinyl)-6-methyl-1-phenyl-1H-pyrazolo[3,4-d]pyrimidine] | 235 to 237 | 78 ± 4.2 | 91.6 ± 5.1 | 88.3 ± 4.7 |  |
| CC(=NNc1nc(C)nc2c1cnn2-c1ccccc1)c1ccc(Cl)cc1Br [Compound 5l, 4-(2-(1-(2-Bromo-4-chlorophenyl)ethylidene)hydrazineyl)-6-methyl-1-phenyl-1H-pyrazolo[3,4-d] pyrimidine] | 257 to 259 | 14.6 ± 1.1 | 17.1 ± 1.3 | 29.2 ± 1.8 |  |
| Cc1nc(NN2C(=O)CCC2=O)c2cnn(-c3ccccc3)c2n1 [Compound 7, 1-((6-Methyl-1-phenyl-1H-pyrazolo[3,4-d]pyrimidin-4-yl)amino)pyrrolidine-2,5-dione] | 280 to 282 | 73.5 ± 3.8 | 87.2 ± 4.5 | 81 ± 4.6 |  |
| Cc1nc(NN2C(=O)C=CC2=O)c2cnn(-c3ccccc3)c2n1 [Compound 8, 1-((6-Methyl-1-phenyl-1H-pyrazolo[3,4-d]pyrimidin-4-yl)amino)-1H-pyrrole-2,5-dione] |  | 66.3 ± 3.5 | 78.5 ± 4.3 | 79.5 ± 4.4 |  |
| CCCNC(=S)NNc1nc(C)nc2c1cnn2-c1ccccc1 [Compound 9b, 2-(6-Methyl-1-phenyl-1H-pyrazolo[3,4-d]pyrimidin-4-yl)-N-propylhydrazinecarbothioamide] |  | 17.6 ± 1.3 | 23.9 ± 1.8 | 34.2 ± 2 |  |
| COc1cccc2c1C(=O)c1c(O)c3c(c(O)c1C2=O)C[C@@](O)(C(=O)CO)C[C@@H]3O[C@H]1C[C@H](N)[C@H](O)[C@H](C)O1 [DOX, Doxorubicin, reference compound] |  |  | 4.5 ± 0.2 |  | IC50 (WI-38): 10.6 ± 0.47 µM; IC50 (HePG-2; 24 h incubation, read-out: IC50 HePG-2 24 h): 4.5 ± 0.2 µM; IC50 (HePG-2; 48 h incubation, read-out: IC50 HePG-2 48 h): 3.24 ± 0.2 µM; IC50 (HePG-2; 72 h incubation, read-out: IC50 HePG-2 72 h): 1.07 ± 0.1 µM |
| COc1cc([C@@H]2c3cc4c(cc3[C@@H](O[C@@H]3O[C@@H]5CO[C@@H](C)O[C@H]5[C@H](O)[C@H]3O)[C@H]3COC(=O)[C@H]23)OCO4)cc(OC)c1O [Etoposide, reference compound] |  |  |  |  | TOPO IiB %inh at conc 12.5 (Topo-II; conc 12.5, unit not given): 7.5%; TOPO IiB %inh at conc 25 (Topo-II; conc 25, unit not given): 20%; TOPO IiB %inh at conc 50 (Topo-II; conc 50, unit not given): 39%; TOPO IiB %inh at conc 100 (Topo-II; conc 100, unit not given): 69% |

Now from value to compound, other results behind:

| melting point [°C] | Structure (SMILES) | IC50 (HCT-116) [µM] | IC50 (HePG-2; [1]) [µM] | IC50 (MCF-7) [µM] | other results |
| --- | --- | --- | --- | --- | --- |
| 250 to 252 | Cc1nc2c(cnn2-c2ccccc2)c2nncn12 [Compound 6a, 5-Methyl-7-phenyl-7H-pyrazolo[4,3-e][1,2,4]triazolo[4,3-c]pyrimidine] | 34.6 ± 2.2 | 37.5 ± 2.7 | 49.6 ± 3.1 |  |
| 267 to 269 | Cc1nc2c(cnn2-c2ccccc2)c2nnc(C(F)(F)F)n12 [Compound 6b, 5-Methyl-7-phenyl-3-(trifluoromethyl)-7H-pyrazolo[4,3-e][1,2,4]triazolo[4,3-c]pyrimidine] | 26.1 ± 1.8 | 25.2 ± 2 | 39.1 ± 2.5 |  |
| 250 to 252 | Cc1nc2c(cnn2-c2ccccc2)c2nnc(C(Cl)(Cl)Cl)n12 [Compound 6c, 5-Methyl-7-phenyl-3-(trichloromethyl)-7H-pyrazolo[4,3-e][1,2,4]triazolo[4,3-c]pyrimidine] | 37.2 ± 2.4 | 56.2 ± 3.5 | 54.2 ± 3.4 |  |
| 240 to 242 | CC(=O)CC(C)=Nc1nc(C)nc2c1cnn2-c1ccccc1 [Compound 6d, 4-((6-Methyl-1-phenyl-1H-pyrazolo[3,4-d]pyrimidin-4-yl)imino)pentan-2-one] | 93.4 ± 5.2 | 89.2 ± 4.7 | 84.6 ± 4.6 |  |
| 278 to 280 | CCNC(=S)NNc1nc(C)nc2c1cnn2-c1ccccc1 [Compound 9a, N-Ethyl-2-(6-methyl-1-phenyl-1H-pyrazolo[3,4-d]pyrimidin-4-yl)hydrazinecarbothioamide] | 2.96 ± 0.1 | 5.97 ± 0.3 | 7.61 ± 0.4 |  |
| 270 to 272 | CCCCNC(=S)NNc1nc(C)nc2c1cnn2-c1ccccc1 [Compound 9c, N-Butyl-2-(6-methyl-1-phenyl-1H-pyrazolo[3,4-d]pyrimidin-4-yl)hydrazinecarbothioamide] | 16.6 ± 1.2 | 20.3 ± 1.6 | 31.4 ± 1.9 |  |
| 268 to 270 | C=CNC(=S)NNc1nc(C)nc2c1cnn2-c1ccccc1 [Compound 9d, 2-(6-Methyl-1-phenyl-1H-pyrazolo[3,4-d]pyrimidin-4-yl)-N-vinylhydrazine-1-carbothioamide] | 19.7 ± 1.4 | 32.6 ± 2.4 | 35.2 ± 2.2 |  |
